Experimental data from patent US20140187422A1, “Fungicidal substituted 1--1H-[1,2,4]triazole compounds” (BASF SE, priority 2011, published 2014).
Where two headings read alike, the source gives them in different places.

Experiments:
Septoria tritici [1] = test: Microtest: activity against leaf blotch on wheat caused by Septoria tritici (Septtr); format: cell-based; conditions: relative growth vs active compound-free control (100%), 7 days after inoculation
Pyriculana oryzae = format: cell-based; conditions: relative growth vs control (100%), 7 days after inoculation
Pyrenophora teres = test: Microtiter test: activity against net blotch Pyrenophora teres on barley (Pyrnte); format: cell-based
Procedure: M3 Activity against net blotch Pyrenophora teres on barley in the microtiter test ([…] stock solutions were mixed according to the ratio, pipetted onto a micro titer plate (MTP) and diluted with water to the stated concentrations. A spore suspension of Pyrenophora teres in an aqueous biomalt or yeast-bactopeptone-glycerine solution was then added. The plates were placed in a water vapor-saturated chamber at a temperature of 18° C. Using an absorption photometer, the MTPs were measured at 405 nm 7 days after the inoculation. The measured parameters were compared to the growth of the active compound-free control variant (100%) and the fungus-free and active compound-free blank value to determine the relative growth in % of the pathogens in the respective active compounds.

Septoria tritici [2] = test: Green house: curative control of leaf blotch on wheat caused by Septoria tritici (Septtr K7); format: in vivo; conditions: sprayed 7 days after inoculation, % diseased leaf area, untreated control 80
Procedure: The spray solutions were prepared in several steps: The stock solution were prepared: a mixture of acetone and/or dimethylsulfoxide and the wetting agent/emulsifier Wettol, which is based on ethoxylated alkylphenoles, in a relation (volume) solvent-emulsifier of 99 to 1 was added to 25 mg of the compound to give a total of 5 ml. Water was then added to total volume of 100 ml. This stock solution was diluted with the described solvent-emulsifier-water mixture to the given concentration. G1 Curative control of leaf blotch on wheat caused by Septoria tritici (Septtr K7) Leaves of pot-grown wheat seedling were inoculated with an aqueous spore suspension of Septoria tritici. Then the trial plants were immediately transferred to a humid chamber at 18-22° C. and a relative humidity close to 100%. After 4 days the plants were transferred to a chamber with 18-22° C. and a relative humidity close to 70%. Seven days after inoculation the plants were sprayed to run-off with an aqueous suspension of the active compound or their mixture, prepared as described. Then the plants were transferred back to the chamber with 18-22° C. and a relative humidity close to 70%. After 4 weeks the extent of fungal attack on the leaves was visually assessed as % diseased leaf area.

| SMILES | Growth 0 (%) at 0.002 ppm Septtr (Septoria tritici [1]) [%] | Growth (%) at 2 ppm Pyrior (Pyriculana oryzae) [%] | Growth (%) at 8 ppm Pymte (Pyrenophora teres) [%] | Growth (%) at 0.5 ppm Pyrior (Pyriculana oryzae) [%] | Disease (%) at 250 ppm Septtr K7 (Septoria tritici [2]) [%] | Growth (%) at 8 ppm Pymte (Pyrenophora teres; relative growth vs control (100%), 7 days after inoculation) [%] |
| --- | --- | --- | --- | --- | --- | --- |
| COC(Cn1cncn1)c1ccc(Oc2ccc(Cl)cc2)cc1Cl (stereo not shown) | 72 | – | – | – | – | – |
| CC(O)(Cn1cncn1)c1ccc(Oc2ccc(Cl)cc2)cc1Cl (stereo not shown) | – | 23 | 62 | – | – | – |
| CCC(Cn1cncn1)(OC)c1ccc(Oc2ccc(Cl)cc2)cc1Cl (stereo not shown) | – | – | 39 | 47 | – | – |
| COC(Cn1cncn1)(c1ccc(Oc2ccc(Cl)cc2)cc1Cl)C1CC1 (stereo not shown) [I-1, 1-[2-[2-chloro-4-(4-chlorophenoxy)phenyl]-2-cyclopropyl-2-methoxy-ethyl]-1,2,4-triazole] | 10 | 0 | – | 21 | 1 | 12 |
